Here are results for 29 compounds from patent US20220041583A1, “IMMUNOMODULATORS, COMPOSITIONS AND METHODS THERE OF” (BETTA PHARMACEUTICALS CO., LTD, priority 2018, published 2022).

In this experiment the target is T1, PD-1/PD-L1 (Homo sapiens, UniProt Q9NZQ7).
T1 construct: Recombinant human PD-L1 protein (19-238) with a His-tag at the C-terminus; purchased AcroBiosystems PD1-H5229 (PD-L1); PD1-H5257 (PD-1)
In words: PD-1/PD-L1 homogenous time-resolved fluorescence (HTRF) binding assay. On the procedure: Resolved Fluorescence (HTRF) Binding Assay
The assays were conducted in a standard black 384-well polystyrene plate with a final volume of 20 μL. Inhibitors were first serially diluted in DMSO and then added to the plate wells before the addition of other reaction components. The final concentration of DMSO in the assay was 1%. The assays were carried out at 25° C. in the PBS buffer (pH 7.4) with 0.05% Tween-20 and 0.1% BSA. Recombinant human PD-L1 protein (19-238) with a His-tag at the C-terminus was purchased from AcroBiosy stems (PD1-H5229). Recombinant human PD-1 protein (25-167) with Fc tag at the C-terminus was also purchased from AcroBiosystems (PD1-H5257). PD-L1 and PD-1 proteins were diluted in the assay buffer and 10 μL was added to the plate well. Plates were centrifuged and proteins were preincubated with inhibitors for 40 min. The incubation was followed by the addition of 10 μL of HTRF detection buffer supplemented with Europium cryptate-labeled anti-human IgG (PerkinElmer-AD0212) specific for Fc and anti-His antibody conjugated to SureLight®-Allophycocyanin (APC, PerkinElmer-AD0059H). After centrifugation, the plate was incubated at 25° C. for 60 min. Before reading on a PHERAstar FS plate reader (665 nm/620 nm ratio). Final concentrations in the assay were […] PD1, 10 nM PD-L1, 1 nM europium anti-human IgG and 20 nM anti-His-Allophycocyanin. IC50 determination was performed by fitting the curve of percent control activity versus the log of the inhibitor concentration using the GraphPad Prism 5.0 software.

T1 sequence (Q9NZQ7 19-238): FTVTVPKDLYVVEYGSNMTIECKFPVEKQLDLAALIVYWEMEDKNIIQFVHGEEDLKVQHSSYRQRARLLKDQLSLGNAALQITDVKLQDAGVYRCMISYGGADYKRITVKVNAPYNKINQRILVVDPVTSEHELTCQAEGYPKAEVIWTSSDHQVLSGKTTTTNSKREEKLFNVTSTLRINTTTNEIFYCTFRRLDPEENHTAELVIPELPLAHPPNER

As to `Cc1c(-c2ccc3c(c2)OCCO3)cccc1-c1nc2cc(CN3CCC[C@H]3C(=O)O)c(OC(F)F)cc2o1` [Example 47, ((6-(difluoromethoxy)-2-(3-(2,3-dihydrobenzo[b][1,4]dioxin-6-yl)-2-methylphenyl)benzo[d]oxazol-5-yl)methyl)-L-proline], the IC50 (Table 6, class symbols) was in the range of 0.1 to 10 nM. `CSc1cc2oc(-c3cccc(-c4ccccc4)c3C)nc2cc1CN[C@@H](C(=O)O)[C@@H](C)O` [Example 3, ((2-(2-methyl-[1,1′-biphenyl]-3-yl)-6-(methylthio)benzo[d]oxazol-5-yl)methyl)-D-allothreonine] registered an IC50 (Table 6, class symbols) of 10 to 100 nM. Same read-out and setting: for `Cc1c(-c2ccccc2)cccc1-c1nc2cc(CN3CCC[C@@H]3C(=O)O)c(OC(F)F)cc2o1` [Example 37, ((6-(difluoromethoxy)-2-(2-methyl-[1,1′-biphenyl]-3-yl)benzo[d]oxazol-5-yl)methyl)-D-proline] the value was 10 to 100 nM; for `Cc1c(-c2ccccc2)cccc1-c1nc2cc(CN3CCCC[C@H]3C(=O)O)c(OCC(F)(F)F)cc2o1` [Example 54, (S)-1-((2-(2-methyl-[1,1′-biphenyl]-3-yl)-6-(2,2,2-trifluoroethoxy)benzo[d]oxazol-5-yl)methyl)piperidine-2-carboxylic acid], 10 to 100 nM. Where the note is “Table 6, class symbols”, `Cc1c(-c2nc3cc(CN4CCC[C@H]4C(=O)O)c(OC(F)F)cc3o2)cccc1-c1ccccc1C#N` [Example 51, ((2-(2′-cyano-2-methyl-[1,1′-biphenyl]-3-yl)-6-(difluoromethoxy)benzo[d]oxazol-5-yl)methyl)proline] yielded a half-inhibitory concentration (IC50) of 10 to 100 nM. For `Cc1c(-c2ccccc2)cccc1-c1nc2cc(CN3CCC[C@H]3C(=O)O)c(OCC(F)(F)F)cc2o1` [Example 60, ((2-(2-methyl-[1,1′-biphenyl]-3-yl)-6-(2,2,2-trifluoroethoxy)benzo[d]oxazol-5-yl)methyl)-L-proline], for the setting “Table 6, class symbols”, the IC50 lay in the range of 10 to 100 nM. Still for that read-out and setting: then `Cc1c(-c2ccccc2)cccc1-c1nc2cc(CN3CCCC3(C)C(=O)O)c(OC(F)F)cc2o1` (centres unmarked) [Example 50, 1-((6-(difluoromethoxy)-2-(2-methyl-[1,1′-biphenyl]-3-yl)benzo[d]oxazol-5-yl)methyl)-2-methylpyrrolidine-2-carboxylic acid], with 0.1 to 10 nM; and `CC[C@@H](NCc1cc2nc(-c3cccc(-c4ccccc4)c3C)oc2cc1OC(F)F)C(=O)O` [Example 41, (R)-2-(((6-(difluoromethoxy)-2-(2-methyl-[1,1′-biphenyl]-3-yl)benzo[d]oxazol-5-yl)methyl)amino)butanoic acid], with 10 to 100 nM; and `Cc1cc2oc(-c3cccc(-c4ccccc4)c3C#N)nc2cc1CN1CCOC[C@H]1C(=O)O` [Example 19, (S)-4-((2-(2-cyano-[1,1′-biphenyl]-3-yl)-6-methylbenzo[d]oxazol-5-yl)methyl)morpholine-3-carboxylic acid], with 0.1 to 10 nM. For the compound `Cc1cc2oc(-c3cccc(-c4ccccc4)c3C#N)nc2cc1CN1CCC[C@@H]1C(=O)O` [Example 17, ((2-(2-cyano-[1,1′-biphenyl]-3-yl)-6-methylbenzo[d]oxazol-5-yl)methyl)-D-proline], the IC50 (Table 6, class symbols) lay in the range of 0.1 to 10 nM. With `CC[C@H](NCc1cc2nc(-c3cccc(-c4ccccc4)c3C)oc2cc1SC)C(=O)O` [Example 10, (S)-2-(((2-(2-methyl-[1,1′-biphenyl]-3-yl)-6-(methylthio)benzo[d]oxazol-5-yl)methyl)amino)butanoic acid], the concentration for half-maximal inhibition (IC50) (Table 6, class symbols) was in the range of 0.1 to 10 nM. Still for that read-out and setting: then `Cc1c(-c2ccccc2)cccc1-c1nc2cc(CN3CCOC[C@H]3C(=O)O)c(OCC(F)(F)F)cc2o1` [Example 58, (S)-4-((2-(2-methyl-[1,1′-biphenyl]-3-yl)-6-(2,2,2-trifluoroethoxy)benzo[d]oxazol-5-yl)methyl)morpholine-3-carboxylic acid], with 10 to 100 nM; and `CSc1cc2oc(-c3cccc(-c4ccccc4)c3C)nc2cc1CN1CCOC[C@H]1C(=O)O` [Example 9, (S)-4-((2-(2-methyl-[1,1′-biphenyl]-3-yl)-6-(methylthio)benzo[d]oxazol-5-yl)methyl)morpholine-3-carboxylic acid], with 0.1 to 10 nM. Take `Cc1c(-c2ccccc2)cccc1-c1nc2cc(CN[C@H](C(=O)O)[C@H](C)O)c(OC(F)F)cc2o1` [Example 31, ((6-(difluoromethoxy)-2-(2-methyl-[1,1′-biphenyl]-3-yl)benzo[d]oxazol-5-yl)methyl)-L-allothreonine]: the IC50 (Table 6, numeric values) was determined as 3.2 nM. In turn, `Cc1c(-c2ccccc2)cccc1-c1nc2cc3c(cc2o1)OC[C@H](C(=O)O)NC3` [Example 72, (R)-2-(2-methyl-[1,1′-biphenyl]-3-yl)-6,7,8,9-tetrahydrooxazolo[5′,4′:4,5]benzo[1,2-f][1,4]oxazepine-7-carboxylic acid] yielded an IC50 (Table 6, class symbols) of 100 to 1000 nM.

Under “Table 6, class symbols”, `Cc1c(-c2ccccc2)cccc1-c1nc2cc(CN3CCCCC3C(=O)O)c3c(c2o1)C(=O)CO3` (centres unmarked) [Example 68, 1-((2-(2-methyl-[1,1′-biphenyl]-3-yl)-8-oxo-7,8-dihydrobenzofuro[5,4-d]oxazol-5-yl)methyl)piperidine-2-carboxylic acid] had a half-inhibitory concentration (IC50) of 100 to 1000 nM. `Cc1c(-c2ccccc2)cccc1-c1nc2cc(CN3CCC3C(=O)O)c(OC(F)F)cc2o1` (centres unmarked) [Example 48, 1-((6-(difluoromethoxy)-2-(2-methyl-[1,1′-biphenyl]-3-yl)benzo[d]oxazol-5-yl)methyl)azetidine-2-carboxylic acid] displayed an IC50 (Table 6, class symbols) of 0.1 to 10 nM. Same read-out and setting: then `CSc1cc2oc(-c3cccc(-c4ccccc4C#N)c3C#N)nc2cc1CN1CCC[C@H]1C(=O)O` [Example 15, ((2-(2,2′-dicyano-[1,1′-biphenyl]-3-yl)-6-(methylthio)benzo[d]oxazol-5-yl)methyl)-L-proline], with 10 to 100 nM. With `Cc1c(-c2ccccc2)cccc1-c1nc2cc(CN[C@@H](C(=O)O)[C@@H](C)O)c(OC(F)F)cc2o1` [Example 30, ((6-(difluoromethoxy)-2-(2-methyl-[1,1′-biphenyl]-3-yl)benzo[d]oxazol-5-yl)methyl)-D-allothreonine], the IC50 (Table 6, numeric values) was 4.8 nM. In the case of `Cc1c(-c2ccccc2)cccc1-c1nc2cc(CN3CCC[C@H]3C(=O)O)c(S(C)(=O)=O)cc2o1` [Example 66, ((2-(2-methyl-[1,1′-biphenyl]-3-yl)-6-(methylsulfonyl)benzo[d]oxazol-5-yl)methyl)-L-proline], the IC50 (Table 6, class symbols) lay in the range of 0.1 to 10 nM. `Cc1c(-c2ccccc2)cccc1-c1nc2cc3c(cc2o1)OC[C@@H](C(=O)O)NC3` [Example 70, (S)-2-(2-methyl-[1,1′-biphenyl]-3-yl)-6,7,8,9-tetrahydrooxazolo[5′,4′:4,5]benzo[1,2-f][1,4]oxazepine-7-carboxylic acid] came in with an IC50 (Table 6, class symbols) of 100 to 1000 nM.

The compound `CSc1cc2oc(-c3cccc(-c4ccccc4)c3C)nc2cc1CN[C@@H](C)C(=O)O` [Example 5, ((2-(2-methyl-[1,1′-biphenyl]-3-yl)-6-(methylthio)benzo[d]oxazol-5-yl)methyl)-L-alanine] had an IC50 (Table 6, class symbols) of 0.1 to 10 nM.

`CNc1cc2oc(-c3cccc(-c4ccccc4)c3C)nc2cc1CN1CCCCC1C(=O)O` (centres unmarked) [Example 27, 1-((2-(2-methyl-[1,1′-biphenyl]-3-yl)-6-(methylamino)benzo[d]oxazol-5-yl)methyl)piperidine-2-carboxylic acid] had a 50% inhibitory concentration (IC50) (Table 6, class symbols) of 0.1 to 10 nM.

As for `Cc1c(-c2ccccc2)cccc1-c1nc2cc(CN3CCCC3(C)C(=O)O)c(OCC(F)(F)F)cc2o1` (centres unmarked) [Example 61, 2-methyl-1-((2-(2-methyl-[1,1′-biphenyl]-3-yl)-6-(2,2,2-trifluoroethoxy)benzo[d]oxazol-5-yl)methyl)pyrrolidine-2-carboxylic acid], the IC50 (Table 6, class symbols) lay within 10 to 100 nM. The same measure, in the same setting: then `Cc1c(-c2ccccc2)cccc1-c1nc2cc(CN[C@H](C)C(=O)O)c(OCC(F)(F)F)cc2o1` [Example 56, ((2-(2-methyl-[1,1′-biphenyl]-3-yl)-6-(2,2,2-trifluoroethoxy)benzo[d]oxazol-5-yl)methyl)-D-alanine], with 10 to 100 nM. The same measure, in the same setting: for `CC[C@@H](NCc1cc2nc(-c3cccc(-c4ccccc4)c3C)oc2cc1SC)C(=O)O` [Example 11, (R)-2-(((2-(2-methyl-[1,1′-biphenyl]-3-yl)-6-(methylthio)benzo[d]oxazol-5-yl)methyl)amino)butanoic acid] the value was 10 to 100 nM.

`Cc1c(-c2ccccc2)cccc1-c1nc2cc(CNCC(=O)O)c(OC(F)F)cc2o1` [Example 35, ((6-(difluoromethoxy)-2-(2-methyl-[1,1′-biphenyl]-3-yl)benzo[d]oxazol-5-yl)methyl)glycine] registered an IC50 (Table 6, class symbols) of 0.1 to 10 nM. Still for that read-out and setting: then `Cc1c(-c2ccccc2)cccc1-c1nc2cc3c(cc2o1)OCCN(C)C3` [Example 67, 8-methyl-2-(2-methyl-[1,1′-biphenyl]-3-yl)-6,7,8,9-tetrahydrooxazolo[5′,4′:4,5]benzo[1,2-f][1,4]oxazepine], with 100 to 1000 nM; and `CSc1cc2oc(-c3cccc(-c4ccccc4)c3C)nc2cc1CN[C@H](C)C(=O)O` [Example 6, ((2-(2-methyl-[1,1′-biphenyl]-3-yl)-6-(methylthio)benzo[d]oxazol-5-yl)methyl)-D-alanine], with 10 to 100 nM.
